Values of other authors, collected in US20110250274A1, “ESTRIOL FORMULATIONS” (priority 2008, published 2011).

Assays:
[1] = compared with the other main human estrogens
[2] = oral administration
[3] = intravaginal route, avoiding enterohepatic circulation

C[C@]12CC[C@@H]3c4ccc(O)cc4CC[C@H]3[C@@H]1C[C@@H](O)[C@@H]2O [Estriol, estra-1,3,5(10)-triene-3,16a,17β-triol]
mitogenic activity [1]: no mitogenic activity
share of the administered oral dose rapidly glucuro-conjugated by the liver [2]: ~90%
share of the oral dose administered that reaches the systemic circulation [2]: 1-2%
plasma levels of free estriol [3]: 20%
